In BigSolDB 2.1:

Conditions: in n-octanol

solubility (mole fraction) (293.15 K) | solubility (mole fraction) (298.15 K) | solubility (mole fraction) (303.15 K) | solubility (mole fraction) (308.15 K) | solubility (mole fraction) (313.15 K) | Compound
0.00182 | 0.00212 | 0.00253 | 0.00297 | 0.00348 | COc1ccccc1-n1c(=S)sc2c(=O)n(CC(=O)NCC(O)(Cn3cncn3)c3ccc(F)cc3F)cnc21 (stereo not given)
0.000335 | 0.000382 | 0.000439 | 0.000495 | 0.000563 | O=C(Cn1cnc2c(sc(=S)n2-c2ccc(F)cc2)c1=O)NCC(O)(Cn1cncn1)c1ccc(F)cc1F (stereo not given)
0.000548 | 0.000617 | 0.000699 | 0.000773 | 0.000861 | O=C(Cn1cnc2c(sc(=S)n2-c2ccc(Cl)cc2)c1=O)NCC(O)(Cn1cncn1)c1ccc(F)cc1F (stereo not given)
0.000299 | 0.000368 | 0.000444 | 0.000531 | 0.000638 | Cc1ccc(-n2c(=S)sc3c(=O)n(CC(=O)NCC(O)(Cn4cncn4)c4ccc(F)cc4F)cnc32)cc1 (stereo not given)
